The text below walks through data of ChEMBL document CHEMBL5360643, “Cyclic Peptides from the Opportunistic Pathogen Basidiobolus meristosporus” (J Nat Prod, 2023).

Converted amounts (≈) assume the structure as drawn.

Series [1] in a line: Cytotoxicity against mouse RAW264.7 cells assessed as reduction in cell viability incubated for 24 hrs by CCK-8 assay. It counts as toxicity, cell-based.
Series [2] is described as follows: Cytotoxicity against human HEK293T cells assessed as reduction in cell viability incubated for 24 hrs by CCK-8 assay. The class given is toxicity, cell-based, HEK-293T. On the technique in general: Tetrazolium dyes change colour on reduction, which living cells bring about.
Series [3] can be described thus: Cytotoxicity against human HepG2 cells assessed as reduction in cell viability incubated for 24 hrs by CCK-8 assay. The class given is toxicity, cell-based.

As for `CC[C@H](C)[C@@H]1NC(=O)[C@H](Cc2ccccc2)NC(=O)[C@@H]2C[C@]3(O)c4ccccc4N[C@H]3N2C(=O)[C@H]([C@@H](C)O)NC(=O)[C@@H](Cc2ccc(O)cc2)NC1=O`, the IC50 at 24 h in series [1] is 182 µg/mL (≈ 251 µM); in series [2] it was 148 µg/mL (≈ 203 µM); in series [3] it was 110 µg/mL (≈ 151 µM).
Taken in the same sequence, the figures for `CC[C@H](C)[C@@H]1NC(=O)[C@H](Cc2ccccc2)NC(=O)[C@H](Cc2c[nH]c3ccccc23)NC(=O)[C@@H]([C@@H](C)O)NC(=O)[C@@H](Cc2ccc(O)cc2)NC1=O` were 17.2 µg/mL (≈ 24.2 µM), 6 µg/mL (≈ 8.44 µM) and 29.6 µg/mL (≈ 41.6 µM).
The matching figures for `CC(C)C[C@H]1NC(=O)[C@H](Cc2ccccc2)NC(=O)[C@H](Cc2c[nH]c3ccccc23)NC(=O)[C@@H](C(C)C)NC(=O)[C@H](C(C)C)NC(=O)[C@@H](C)NC1=O`: 7.7 µg/mL (≈ 10.8 µM), 150 µg/mL (≈ 210 µM) and 125 µg/mL (≈ 174 µM).
Taken in the same sequence, the figures for `COc1cc([C@@H]2c3cc4c(cc3[C@H](O)[C@H]3COC(=O)[C@H]23)OCO4)cc(OC)c1OC` [PODOFILOX] were 61.3 µg/mL (≈ 148 µM), 20 µg/mL (≈ 48.3 µM) and 19.6 µg/mL (≈ 47.3 µM).

Broadly, the IC50 is the concentration at which inhibition is half-maximal.
